Reference: US9290777B2, “Putative cytokinin receptor and methods for use thereof” (NATIONAL UNIVERSITY OF SINGAPORE, priority 2007, dated 2016)
Entries after “also recorded” stand apart in the source; their conditions may differ.

Tested on: STM
Assay: qRT-PCR of cytokinin responsive gene after BA pulse, fold change vs untreated wild type
Format: cell-based, Arabidopsis thaliana
Method: For quantitative real-time PCR (qRT-PCR) analysis of cytokinin-inducible gene expression, seeds were germinated on MS medium with 3% (w/v) sucrose and grown for 6 days. Cytokinin treatment was carried out by incubating seedlings in the same MS+sucrose liquid medium (no agar) supplemented with 0, 0.01, 0.1, 1 or 5 μM [solubilized in 0.1% dimethylsulfoxide (DMSO) and diluted with the MS medium] for 5 min, 15 min, 30 min or 1 h. The control seedlings were incubated with DMSO (0.1%, the concentration used to dissolve cytokinins for the treatment) for the corresponding durations and used for expression analysis. Before RNA preparation, WT, OE and AS seedlings were pooled and stored in RNAlater solution (Qiagen, Valencia, Calif.). Total RNA was extracted using the Rneasy Plant Mini Kit (Qiagen). SYBRgreen RT-PCR reagents (Applied Biosystems) were used to synthesize double-stranded cDNA. The number of transcripts present in biological replicates each of WT, OE and AS seedlings, with or without BA and DMSO, was determined from three independent replicates. Fold induction of the transcripts was calculated according to the manufacturer's instructions (ABI Prism 7700 Sequence Detection System, User Bulletin #2).

For `c1ccc(CNc2ncnc3nc[nH]c23)cc1` [benzyladenine], the “STM transcripts in OE lines compared to untreated wild type” value (5 μM BA, 1 h, OE lines (e.g. OE1, OE12), listed as BA) was “less than a two fold change; also recorded: no significant difference”, the STM fold change (BA 0.01 μM, 5 min, AS1, ↑ up) was 3.23↑ and the STM fold change (BA 0.01 μM, 5 min, AS8, ↑ up) was 5.2↑. The STM fold change (BA 0.01 μM, 5 min, AS21, ↑ up) was 7.1↑, the STM fold change (BA 0.01 μM, 5 min, OE1, ↓ down) was 3.41↓ and the STM fold change (BA 0.01 μM, 5 min, OE12, ↓ down) was 4.97↓. The STM fold change (BA 0.01 μM, 5 min, OE18, ↓ down) was 6.23↓, the STM fold change (BA 0.01 μM, 5 min, Wild type, ↑ up) was 2.45↑ and the STM fold change (BA 0.01 μM, 15 min, AS1, ↑ up) was 3.67↑. The STM fold change (BA 0.01 μM, 15 min, AS8, ↑ up) was 5.58↑, the STM fold change (BA 0.01 μM, 15 min, AS21, ↑ up) was 7.48↑ and the STM fold change (BA 0.01 μM, 15 min, OE1, ↓ down) was 3.23↓. The STM fold change (BA 0.01 μM, 15 min, OE12, ↓ down) was 4.65↓, the STM fold change (BA 0.01 μM, 15 min, OE18, ↓ down) was 6.02↓ and the STM fold change (BA 0.01 μM, 15 min, Wild type, ↑ up) was 2.54↑. For the same compound, the STM fold change (BA 0.01 μM, 30 min, AS1, ↑ up) was 3.91↑, the STM fold change (BA 0.01 μM, 30 min, AS8, ↑ up) was 5.95↑ and the STM fold change (BA 0.01 μM, 30 min, AS21, ↑ up) was 7.69↑. The STM fold change (BA 0.01 μM, 30 min, OE1, ↓ down) was 3.01↓, the STM fold change (BA 0.01 μM, 30 min, OE12, ↓ down) was 4.31↓ and the STM fold change (BA 0.01 μM, 30 min, OE18, ↓ down) was 5.91↓. The STM fold change (BA 0.01 μM, 30 min, Wild type, ↑ up) was 3.01↑, the STM fold change (BA 0.01 μM, 1 h, AS1, ↑ up) was 4.1↑ and the STM fold change (BA 0.01 μM, 1 h, AS8, ↑ up) was 6.06↑. For the same compound, the STM fold change (BA 0.01 μM, 1 h, AS21, ↑ up) was 8.05↑, the STM fold change (BA 0.01 μM, 1 h, OE1, ↓ down) was 2.81↓ and the STM fold change (BA 0.01 μM, 1 h, OE12, ↓ down) was 3.96↓. For the same compound, the STM fold change (BA 0.01 μM, 1 h, OE18, ↓ down) was 5.82↓, the STM fold change (BA 0.01 μM, 1 h, Wild type, ↑ up) was 3.2↑ and the STM fold change (BA 0.1 μM, 5 min, AS1, ↑ up) was 4.24↑. The STM fold change (BA 0.1 μM, 5 min, AS8, ↑ up) was 6.22↑, the STM fold change (BA 0.1 μM, 5 min, AS21, ↑ up) was 8.21↑ and the STM fold change (BA 0.1 μM, 5 min, OE1, ↓ down) was 3.2↓. The STM fold change (BA 0.1 μM, 5 min, OE12, ↓ down) was 3.81↓, the STM fold change (BA 0.1 μM, 5 min, OE18, ↓ down) was 5.79↓ and the STM fold change (BA 0.1 μM, 5 min, Wild type, ↑ up) was 3.56↑. For the same compound, the STM fold change (BA 0.1 μM, 15 min, AS1, ↑ up) was 4.49↑, the STM fold change (BA 0.1 μM, 15 min, AS8, ↑ up) was 6.39↑ and the STM fold change (BA 0.1 μM, 15 min, AS21, ↑ up) was 8.36↑. For the same compound, the STM fold change (BA 0.1 μM, 15 min, OE1, ↓ down) was 3.14↓, the STM fold change (BA 0.1 μM, 15 min, OE12, ↓ down) was 3.73↓ and the STM fold change (BA 0.1 μM, 15 min, OE18, ↓ down) was 5.61↓. For the same compound, the STM fold change (BA 0.1 μM, 15 min, Wild type, ↑ up) was 3.68↑, the STM fold change (BA 0.1 μM, 30 min, AS1, ↑ up) was 4.79↑ and the STM fold change (BA 0.1 μM, 30 min, AS8, ↑ up) was 6.63↑. For the same compound, the STM fold change (BA 0.1 μM, 30 min, AS21, ↑ up) was 8.58↑, the STM fold change (BA 0.1 μM, 30 min, OE1, ↓ down) was 2.92↓ and the STM fold change (BA 0.1 μM, 30 min, OE12, ↓ down) was 3.49↓. The STM fold change (BA 0.1 μM, 30 min, OE18, ↓ down) was 5.34↓, the STM fold change (BA 0.1 μM, 30 min, Wild type, ↑ up) was 3.85↑ and the STM fold change (BA 0.1 μM, 1 h, AS1, ↑ up) was 4.97↑. The STM fold change (BA 0.1 μM, 1 h, AS8, ↑ up) was 6.94↑, the STM fold change (BA 0.1 μM, 1 h, AS21, ↑ up) was 8.87↑ and the STM fold change (BA 0.1 μM, 1 h, OE1, ↓ down) was 2.76↓. For the same compound, the STM fold change (BA 0.1 μM, 1 h, OE12, ↓ down) was 3.01↓, the STM fold change (BA 0.1 μM, 1 h, OE18, ↓ down) was 5.01↓ and the STM fold change (BA 0.1 μM, 1 h, Wild type, ↑ up) was 3.96↑. The STM fold change (BA 1.0 μM, 5 min, AS1, ↑ up) was 5.53↑, the STM fold change (BA 1.0 μM, 5 min, AS8, ↑ up) was 7.8↑ and the STM fold change (BA 1.0 μM, 5 min, AS21, ↑ up) was 8.89↑. For the same compound, the STM fold change (BA 1.0 μM, 5 min, OE1, ↓ down) was 2.86↓, the STM fold change (BA 1.0 μM, 5 min, OE12, ↓ down) was 2.89↓ and the STM fold change (BA 1.0 μM, 5 min, OE18, ↓ down) was 4.26↓. The STM fold change (BA 1.0 μM, 5 min, Wild type, ↑ up) was 4.11↑, the STM fold change (BA 1.0 μM, 15 min, AS1, ↑ up) was 5.78↑ and the STM fold change (BA 1.0 μM, 15 min, AS8, ↑ up) was 7.93↑. The STM fold change (BA 1.0 μM, 15 min, AS21, ↑ up) was 9.02↑, the STM fold change (BA 1.0 μM, 15 min, OE1, ↓ down) was 2.61↓ and the STM fold change (BA 1.0 μM, 15 min, OE12, ↓ down) was 2.56↓. For the same compound, the STM fold change (BA 1.0 μM, 15 min, OE18, ↓ down) was 4.11↓, the STM fold change (BA 1.0 μM, 15 min, Wild type, ↑ up) was 4.36↑ and the STM fold change (BA 1.0 μM, 30 min, AS1, ↑ up) was 5.83↑. For the same compound, the STM fold change (BA 1.0 μM, 30 min, AS8, ↑ up) was 7.99↑, the STM fold change (BA 1.0 μM, 30 min, AS21, ↑ up) was 9.25↑ and the STM fold change (BA 1.0 μM, 30 min, OE1, ↓ down) was 2.39↓. For the same compound, the STM fold change (BA 1.0 μM, 30 min, OE12, ↓ down) was 2.87↓, the STM fold change (BA 1.0 μM, 30 min, OE18, ↓ down) was 4.01↓ and the STM fold change (BA 1.0 μM, 30 min, Wild type, ↑ up) was 4.69↑. For the same compound, the STM fold change (BA 1.0 μM, 1 h, AS1, ↑ up) was 6.21↑, the STM fold change (BA 1.0 μM, 1 h, AS8, ↑ up) was 8.07↑ and the STM fold change (BA 1.0 μM, 1 h, AS21, ↑ up) was 9.66↑. The STM fold change (BA 1.0 μM, 1 h, OE1, ↓ down) was 2.11↓, the STM fold change (BA 1.0 μM, 1 h, OE12, ↓ down) was 2.62↓ and the STM fold change (BA 1.0 μM, 1 h, OE18, ↓ down) was 3.82↓. The STM fold change (BA 1.0 μM, 1 h, Wild type, ↑ up) was 4.97↑, the STM fold change (BA 5.0 μM, 5 min, AS1, ↑ up) was 6.01↑ and the STM fold change (BA 5.0 μM, 5 min, AS8, ↑ up) was 8.46↑. For the same compound, the STM fold change (BA 5.0 μM, 5 min, AS21, ↑ up) was 9.33↑, the STM fold change (BA 5.0 μM, 5 min, OE1, ↓ down) was 2.29↓ and the STM fold change (BA 5.0 μM, 5 min, OE12, ↓ down) was 2.49↓. The STM fold change (BA 5.0 μM, 5 min, OE18, ↓ down) was 3.35↓, the STM fold change (BA 5.0 μM, 5 min, Wild type, ↑ up) was 5.62↑ and the STM fold change (BA 5.0 μM, 15 min, AS1, ↑ up) was 6.21↑. For the same compound, the STM fold change (BA 5.0 μM, 15 min, AS8, ↑ up) was 8.63↑, the STM fold change (BA 5.0 μM, 15 min, AS21, ↑ up) was 9.44↑ and the STM fold change (BA 5.0 μM, 15 min, OE1, ↓ down) was 2.11↓. The STM fold change (BA 5.0 μM, 15 min, OE12, ↓ down) was 2.13↓, the STM fold change (BA 5.0 μM, 15 min, OE18, ↓ down) was 3.28↓ and the STM fold change (BA 5.0 μM, 15 min, Wild type, ↑ up) was 5.89↑. The STM fold change (BA 5.0 μM, 30 min, AS1, ↑ up) was 6.43↑, the STM fold change (BA 5.0 μM, 30 min, Wild type, ↑ up) was 5.99↑ and the “STM transcripts, dose dependence” value (BA 0.01-5 μM pulse, 5 min-1 h) was “dose-dependent increase”.
